Counter-ions that a name gives are not always drawn.
What was measured:
BV-2 cells [1] = experiment: Inhibition of DNS-PNT uptake by endocytic pathway inhibitors in BV-2 cells; assay type: cell-based, murine; details: inhibitor 10 μM, 1 h pre-incubation, DNS-PNT 20 μg/mL 24 h with or without inhibitor; confocal imaging
Protocol: BV-2 cells were seeded at a density of 10,000 cells per well in a 96-well plate and cultured for 2 days. […] Following uptake, the medium containing PNTs was collected, and the cells were further incubated in fresh CCM for 1 or 24 h to allow exocytosis. The supernatant was subsequently collected, and the cells were washed three times with PBS. […] Fluorescence intensity was measured directly at 335/518 nm excitation and emission using a Synergy H1 multimodal microplate reader. For inhibition studies, BV-2 cells were seeded in 35 mm culture dishes (VWR) at a density of 300,000 cells and cultured for 2 days. […] The inhibitors used were chlorpromazine hydrochloride (Sigma), cytochalasin D (Sigma), amiloride hydrochloride hydrate (Sigma), sucrose (Thermo Fisher Scientific), and genistein (Sigma). − After treatment, cells were incubated with LysoTracker (75 nM, Invitrogen) for 1 h and fixed with 10% formalin phosphate buffer (Thermo Fisher Scientific) for 10 min. Subsequently, cells were stained with Tomato Lectin (1 μg/mL, 1 h) and ToPro-3 (0.1 μg/mL, 15 min; Thermo Fisher Scientific) in PBS at room temperature. Confocal images were acquired using a Nikon microscope (40× and […] oil immersion objectives, 1.30 numerical aperture; Nikon Corporation, Minato City, Tokyo, Japan).

BV-2 cells [2] = experiment: MTT cell viability / cytotoxicity in healthy BV-2 cells; assay type: cell-based, murine; details: 3 doses equivalent to NAM-PNT, 24 h (Figure S11)
Protocol: Murine microglia BV-2 cells were purchased from ATCC (CRL-2469) and cultured based on previous literature. Briefly, BV-2 cells were cultured in cell culture media (CCM, high-glucose, phenol red-free DMEM supplemented with 10% FBS, 1% glutamine, and 1% 100 U/mL penicillin–streptomycin) at 37 °C under a 5% CO2 atmosphere. The passage number of BV-2 cells used in this study was between 7 and 15. At 70–80% confluency, BV-2 cells were passaged and seeded in a 96-well plate for further experiments. […] Cell cytotoxicity was identified by the standard 3-(4,5-dimethylthiazol-2-yl)-2,5-diphenyltetrazolium bromide (MTT) assay (Thermo Fisher Scientific) on healthy cells. After 24 h, cells were incubated with fresh media containing 10 μL of 12 mM MTT solution in PBS for 4 h. Following the addition of 50 μL of […] (DMSO), the absorbance was recorded by a Synergy H1 multimodal microplate reader at a wavelength of 540 nm. Cell viability was measured using the alamarBlue (aBlue) Cell Viability Reagent (Thermo Fisher Scientific). […] The plate was measured directly at 560/590 nm excitation/emission fluorescence on a Synergy H1 multimodal microplate reader. Readings were normalized to those of healthy controls. […] Data were collected using a Synergy H1 multimodal microplate reader. For the OGD studies, readings were normalized to the average value of the OGD controls.

OGD-exposed BV-2 cells = experiment: AlamarBlue cell viability / metabolic activity in OGD-exposed BV-2 cells; assay type: cell-based, murine; details: 10 min OGD, then treatment, normalized to OGD controls
Protocol: Murine microglia BV-2 cells were purchased from ATCC (CRL-2469) and cultured based on previous literature. Briefly, BV-2 cells were cultured in cell culture media (CCM, high-glucose, phenol red-free DMEM supplemented with 10% FBS, 1% glutamine, and 1% 100 U/mL penicillin–streptomycin) at 37 °C under a 5% CO2 atmosphere. The passage number of BV-2 cells used in this study was between 7 and 15. At 70–80% confluency, BV-2 cells were passaged and seeded in a 96-well plate for further experiments. […] Following the addition of 50 μL of […] (DMSO), the absorbance was recorded by a Synergy H1 multimodal microplate reader at a wavelength of 540 nm. Cell viability was measured using the alamarBlue (aBlue) Cell Viability Reagent (Thermo Fisher Scientific). […] The plate was measured directly at 560/590 nm excitation/emission fluorescence on a Synergy H1 multimodal microplate reader. Readings were normalized to those of healthy controls. […] Data were collected using a Synergy H1 multimodal microplate reader. For the OGD studies, readings were normalized to the average value of the OGD controls.

[3] = system: OGD-exposed OWH brain slices; experiment: Propidium iodide cell death in OGD-exposed OWH brain slices; assay type: cell-based, rat; details: OGD-exposed P10 OWH slices, cortex and striatum, 24 h treatment, n = 7
Protocol: All treatments were applied topically.
After 24 h of treatment, slices were stained with 1 mL of 5 μg/mL PI (Thermo Fisher Scientific) in SCM for 45 min under standard culture conditions as previously described. , The staining solution was placed underneath the inset. Slices were washed twice for 3 min each with sterile 1× PBS at room temperature, followed by a 1 h wash with 37 °C SCM under culturing conditions, and then fixed with 10% formalin phosphate buffer (Thermo Fisher Scientific) for 1 hour. Following two final washes with room temperature 1× PBS, slices were stored covered at 4 °C until they were ready for use. Within 2 weeks, slices were stained for 15 min with 0.1 μg/mL DAPI (Thermo Fisher Scientific) in 1× PBS at room temperature. Slices were washed twice for 3 min each with 1× PBS prior to imaging. […] For each image, DAPI+ cell nuclei (total cells) and PI+ cell nuclei (dead cells) that were also DAPI+ were counted manually in ImageJ (NIH) after applying an Otsu threshold and fluorescence cutoff to aid in visualization. , The fluorescence cutoff was kept consistent across all images. The PI+/DAPI+ cell ratio was expressed as the percentage of dead cells in an individual image.

BV-2 cells [4] = experiment: Intracellular ATP level (luminescent ATP detection kit) in BV-2 cells; assay type: cell-based, murine
Protocol: We prepared OGD media as previously described. , OGD media consisted of 120 mM sodium chloride (NaCl, MilliporeSigma), 5 mM potassium chloride (KCl, MilliporeSigma), 2 mM calcium chloride (CaCl2, MilliporeSigma), 1.25 mM monosodium phosphate anhydrous (NaH2PO4, MilliporeSigma), 2 mM magnesium sulfate (MgSO4, MilliporeSigma), 25 mM sodium bicarbonate (NaHCO3, MilliporeSigma), and 20 mM HEPES in DI water. The OGD medium was sterile-filtered (0.2 μm), titrated to pH 7.4 with 1 M hydrochloric acid (Thermo Fisher Scientific) or 1 M sodium hydroxide (Thermo Fisher Scientific), bubbled with nitrogen gas (Praxair, Danbury, CT, USA) for at least 10 min, and prewarmed to 37 °C prior to use. […] Following the addition of 50 μL of […] (DMSO), the absorbance was recorded by a Synergy H1 multimodal microplate reader at a wavelength of 540 nm. Cell viability was measured using the alamarBlue (aBlue) Cell Viability Reagent (Thermo Fisher Scientific). […] The plate was measured directly at 560/590 nm excitation/emission fluorescence on a Synergy H1 multimodal microplate reader. Readings were normalized to those of healthy controls. […] Data were collected using a Synergy H1 multimodal microplate reader. For the OGD studies, readings were normalized to the average value of the OGD controls.

[5] = AFM dimensions (height, length) of peptoid nanotubes; assay type: physicochemical; details: nanotubes assembled from the named peptoid; ex-situ AFM on mica
Protocol: The lengths of PNTs can be adjusted through sonication.
PNTs were prepared using the slow evaporation method to self-assemble the peptoids. Typically, 1 μmol of peptoid was treated with 2 μL of trifluoroacetic acid (TFA) and dried under a flow of N2. Subsequently, 100 μL of acetonitrile was added, followed by the addition of 0.5 M NaOH. Deionized water was then added to bring the total volume to 200 μL. The samples were left at 4 °C for slow evaporation until a gel-like solution was obtained. Ex situ Atomic Force Microscopy (AFM) analysis was conducted using a Bruker MultiMode 8 in ScanAsyst mode at room temperature. For sample preparation, 1.5 μL of the self-assembled peptoid was diluted 40 times with deionized water and deposited on a mica substrate. After 5 min, Whatman filter paper was used to remove the solution, and then the dried mica substrate was further dried under N2 flow. The AFM probe consisted of silicon tips on silicon cantilevers (NCHV probes, k = 42 N/m, tip radius). Scanning electron microscopy (SEM) images were captured from the samples deposited on a silicon wafer using the Apreo2S scanning electron microscope by Thermo Fisher. The imaging process employed an ETD detector, an excitation voltage of 2 kV, a current of 0.2 nA, and a working distance of around 8 mm. […] XRD data were analyzed using custom Python scripts.

C=C1[C@@H](C)[C@H]2[C@H](Cc3ccccc3)NC(=O)[C@]23[C@H](OC(C)=O)/C=C/[C@@](C)(O)C(=O)[C@@H](C)C/C=C/[C@H]3[C@@H]1O [Cytochalasin D, cytochalasin D]
Effect of inhibitor on DNS-PNT internalization into BV-2 cells (BV-2 cells [1]): significantly suppressed PNT signals

N=C(N)NC(=O)c1nc(Cl)c(N)nc1N [amiloride, amiloride hydrochloride hydrate]
Effect of inhibitor on DNS-PNT internalization into BV-2 cells (BV-2 cells [1]): minimal impact

CN(C)CCCN1c2ccccc2Sc2ccc(Cl)cc21 [chlorpromazine, chlorpromazine hydrochloride]
Effect of inhibitor on DNS-PNT internalization into BV-2 cells (BV-2 cells [1]): minimal impact

NC(=O)C1=CN([C@@H]2O[C@H](COP(=O)(O)OP(=O)(O)OC[C@H]3O[C@@H](n4cnc5c(N)ncnc54)[C@H](O)[C@@H]3O)[C@@H](O)[C@H]2O)C=CC1 [free NAD+, β-nicotinamide adenine dinucleotide]
Increase in cell viability with free drug (MTT) (BV-2 cells [2]): increase was not seen | Metabolic activity / cell viability (AlamarBlue) versus OGD control (OGD-exposed BV-2 cells): no effect | Cell death (percentage of PI+ cells) [3]: did not improve cell viability

NC(=O)c1cccnc1 [free NAM, nicotinamide]
Increase in cell viability with free drug (MTT) (BV-2 cells [2]): increase was not seen | Improvement of intracellular ATP level after OGD energy depletion (BV-2 cells [4]; OGD-exposed BV-2 cells, free drug): did not | Cellular ATP level in healthy cells (BV-2 cells [4]; healthy BV-2 cells, 24 h (Figure S16a)): limited increase compared to NAM-PNTs

O=c1c(-c2ccc(O)cc2)coc2cc(O)cc(O)c12 [genistein]
Effect of inhibitor on DNS-PNT internalization into BV-2 cells (BV-2 cells [1]): significantly suppressed PNT signals

OC[C@H]1O[C@@](CO)(O[C@H]2O[C@H](CO)[C@@H](O)[C@H](O)[C@H]2O)[C@@H](O)[C@@H]1O [sucrose]
Effect of inhibitor on DNS-PNT internalization into BV-2 cells (BV-2 cells [1]): reduced PNT uptake

Nbrpm6Nce3Nae3Nc2DNS [Pep-DNS]
Height of nanotubes (ex-situ AFM) [5]: 7.78 ± 0.07 nm
